Test results from patent publication US20060188913A1, “Methods and products for enhancing immune responses using imidazoquinoline compounds” (University of Iowa Research Foundation, priority 2001, published 2006).

What was measured:
[1] = tested on: NF-kappa B luciferase reporter gene; experiment: NF-kappa B luciferase reporter in transfected 293T cells, TLR-independent positive control; type: cell-based, human; details: FIG. 2A
Procedure: (§1) Cells used for transfections were 293T (human embryo kidney cells, T-antigen transfected) or 293-TLR9-Luc (stable transfectants, human embryo kidney cells expressing the human TLR9 receptor and containing a genomic NF-kappa B-luciferase cassette).
(§2) Stimulation was performed 24 h after transfection. Medium of the cells was reduced to 1 ml (without medium change) and cells were stimulated with indicated amounts of R-848, LPS, ODN 8954, 2006 and IL-1 beta for 16 h.
(§3) Cell extracts were prepared by lysing the cells in 100 μl reporter lysis buffer using the freeze-thaw method. NF-kappa B stimulation was measured through luciferase activity (Promega). All data were normalized for beta-gal expression. Stimulation indices were calculated in reference to luciferase activity of medium without addition of ODN.
293T cells, stably transfected with a NF-kappa B-luciferase reporter construct, were transiently transfected with plasmids (pcDNA3.1 constructs) coding for full length hTLR2, hTLR7, hTLR8 and hTLR9. All transfections were normalized to beta-galactosidase activity. Twenty-four hours following transfection, cells were stimulated with R-848, LPS, CpG ODN 8954 (5′ […] 3′, SEQ ID NO:4), CpG ODN 2006, or IL-1 and then assayed for luciferase activity 16 h after stimulation. Each experiment was done at least twice with similar results.

hTLR8 [2] = biological target: T1, hTLR8 (Homo sapiens, UniProt Q9NR97); experiment: NF-kappa B luciferase activation in 293T cells transiently transfected with hTLR8; type: cell-based; details: hTLR8-transfected 293T cells
T1 construct: plasmids (pcDNA3.1 constructs) coding for full length hTLR2, hTLR7, hTLR8 and hTLR9; expressed in transfected cells; host or cells: 293T cells
T1 sequence (Q9NR97 27-1041): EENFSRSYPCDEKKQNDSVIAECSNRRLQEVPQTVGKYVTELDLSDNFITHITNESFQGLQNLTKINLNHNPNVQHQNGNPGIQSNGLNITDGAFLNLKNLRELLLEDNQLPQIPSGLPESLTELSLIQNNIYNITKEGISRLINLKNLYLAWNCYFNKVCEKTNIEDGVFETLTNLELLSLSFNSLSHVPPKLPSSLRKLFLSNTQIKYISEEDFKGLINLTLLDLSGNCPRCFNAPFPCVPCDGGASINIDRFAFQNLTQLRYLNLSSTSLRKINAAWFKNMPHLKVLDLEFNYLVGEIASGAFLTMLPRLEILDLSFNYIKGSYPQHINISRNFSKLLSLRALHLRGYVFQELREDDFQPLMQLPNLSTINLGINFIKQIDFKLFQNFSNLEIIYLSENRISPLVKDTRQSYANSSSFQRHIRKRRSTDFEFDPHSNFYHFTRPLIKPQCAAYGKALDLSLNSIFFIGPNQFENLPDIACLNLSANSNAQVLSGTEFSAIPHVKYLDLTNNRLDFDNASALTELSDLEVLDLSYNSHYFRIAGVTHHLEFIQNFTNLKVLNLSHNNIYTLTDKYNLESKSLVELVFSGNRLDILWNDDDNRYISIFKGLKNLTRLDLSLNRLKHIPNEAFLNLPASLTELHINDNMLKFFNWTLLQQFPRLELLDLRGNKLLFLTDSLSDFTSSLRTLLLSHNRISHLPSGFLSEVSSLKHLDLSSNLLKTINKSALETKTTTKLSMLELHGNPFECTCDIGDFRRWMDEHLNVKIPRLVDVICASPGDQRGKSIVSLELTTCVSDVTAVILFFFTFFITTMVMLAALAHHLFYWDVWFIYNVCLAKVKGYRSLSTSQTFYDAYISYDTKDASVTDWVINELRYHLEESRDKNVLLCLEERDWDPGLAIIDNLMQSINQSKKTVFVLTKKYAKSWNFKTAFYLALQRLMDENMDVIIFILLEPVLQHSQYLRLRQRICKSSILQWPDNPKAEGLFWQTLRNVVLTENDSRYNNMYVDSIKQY
Procedure: as §1
(§4) Transfections were performed in six-well plates. Cells were plated the day before transfection at 4×10^5/well in DMEM+10% FCS.
(§5) Constructs: TLR cDNAs were cloned into pcDNA3.1. NF-kappa B activation was measured by using an 5× NF-kappa B-Luciferase construct (Stratagene). Transfection efficiency was determined by using a beta-galactosidase (beta-gal) reporter construct (p beta-Gal-Control, Clontech).
as §2, §3
(§6) 293T cells, stably transfected with a NF-kappa B-luciferase reporter construct, were transiently transfected with plasmids (pcDNA3.1 constructs) coding for full length hTLR2, hTLR7, hTLR8 and hTLR9. […]

hTLR7 [3] = biological target: T2, hTLR7 (Homo sapiens, UniProt Q9NYK1); experiment: NF-kappa B luciferase activation in 293T cells transiently transfected with hTLR7; type: cell-based; details: hTLR7-transfected 293T cells
T2 construct: plasmids (pcDNA3.1 constructs) coding for full length hTLR2, hTLR7, hTLR8 and hTLR9; expressed in transfected cells; host or cells: 293T cells
T2 sequence (Q9NYK1 27-1049): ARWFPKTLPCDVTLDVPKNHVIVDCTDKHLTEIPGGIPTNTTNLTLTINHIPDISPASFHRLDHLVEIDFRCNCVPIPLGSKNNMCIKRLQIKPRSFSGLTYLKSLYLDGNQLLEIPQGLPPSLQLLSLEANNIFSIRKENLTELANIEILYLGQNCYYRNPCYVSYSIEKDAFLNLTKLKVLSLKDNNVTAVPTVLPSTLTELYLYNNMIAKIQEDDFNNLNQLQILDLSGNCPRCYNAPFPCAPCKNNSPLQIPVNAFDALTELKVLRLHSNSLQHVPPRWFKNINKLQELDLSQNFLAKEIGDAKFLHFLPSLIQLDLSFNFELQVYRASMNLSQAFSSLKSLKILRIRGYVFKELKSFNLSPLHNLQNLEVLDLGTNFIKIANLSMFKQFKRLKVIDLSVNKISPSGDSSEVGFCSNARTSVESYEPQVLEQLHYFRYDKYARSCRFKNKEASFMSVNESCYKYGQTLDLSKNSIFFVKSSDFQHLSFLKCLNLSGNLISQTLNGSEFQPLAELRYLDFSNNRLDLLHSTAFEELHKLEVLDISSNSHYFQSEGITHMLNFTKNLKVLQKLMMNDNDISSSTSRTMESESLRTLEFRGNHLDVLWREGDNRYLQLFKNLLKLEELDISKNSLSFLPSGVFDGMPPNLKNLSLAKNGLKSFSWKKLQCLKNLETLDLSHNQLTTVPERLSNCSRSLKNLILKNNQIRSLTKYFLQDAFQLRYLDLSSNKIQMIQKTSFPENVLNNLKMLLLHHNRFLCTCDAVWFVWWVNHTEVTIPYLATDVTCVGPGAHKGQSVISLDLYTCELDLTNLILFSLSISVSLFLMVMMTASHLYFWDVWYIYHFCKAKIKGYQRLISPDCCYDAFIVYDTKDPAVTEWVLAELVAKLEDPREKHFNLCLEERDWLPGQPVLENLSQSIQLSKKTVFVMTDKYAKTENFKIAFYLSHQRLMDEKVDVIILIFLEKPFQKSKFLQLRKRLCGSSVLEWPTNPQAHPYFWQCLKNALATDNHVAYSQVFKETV
Procedure: as §1, §4, §5, §2, §3, §6

human PBMC [4] = experiment: IFN-gamma secretion by human PBMC (ELISA); type: cell-based; details: 48 hours, compared to R-848, not shown
Procedure: (§7) This experiment investigated the induction of the Th1 cytokine IFN-gamma as well as the Th1-related chemokine IP-10 (IFN-gamma inducible protein). Unfractionated human PBMC from three donors were incubated for 48 hours in the presence of varying concentrations of R-848 (0.01-1.0 μg/ml), varying concentrations of CpG ODN 2006 (0.2-3.0 μg/ml), varying concentrations of negative control ODN 5177 (0.2-3.0 μg/ml), SEB (50 ng/ml), or media alone, and then the concentrations of IP-10 and IFN-gamma in the supernatant were measured by ELISA.

human PBMC [5] = experiment: IP-10 secretion by human PBMC (ELISA); type: cell-based; details: 48 hours, ODN 0.2-3.0 μg/ml versus R-848 0.01-1.0 μg/ml, FIG. 6A
Procedure: as §7
In FIG. 6B, the combined effects of R-848 and CpG ODN (e.g., #2006) on IP-10 secretion are shown. Human PBMCs from three different donors were incubated for 48 hours with the indicated concentrations of ODNs and R-848, either individually or together. Supernatants were harvested and IP-10 was measured by ELISA. The data represent mean cytokine amounts.

hTLR8 [6] = biological target: T1, hTLR8; experiment: IL-8 production in 293 fibroblasts transiently expressing hTLR8; type: cell-based; details: CpG-ODN 2 μM, LPS 100 ng/ml
Procedure: (§8) The cloned human TLR7 and human TLR8 cDNA were cloned into the expression vector pCDNA3. 1 (−) from Invitrogen using the NotI site. Utilizing a “gain of function” assay, hTLR7 and hTLR8 expression vectors were transiently expressed in human 293 fibroblasts (ATCC, CRL-1573) using the calcium phosphate method. Activation was monitored by IL-8 production after stimulus with CpG-ODN (2006 or 1668, 2 μM) or LPS (100 ng/ml).

hTLR7 [7] = biological target: T2, hTLR7; experiment: IL-8 production in 293 fibroblasts transiently expressing hTLR7; type: cell-based; details: CpG-ODN 2 μM, LPS 100 ng/ml
Procedure: as §8

hTLR2 = biological target: T3, hTLR2 (Homo sapiens, UniProt O60603); experiment: NF-kappa B luciferase activation in 293T cells transfected with hTLR2; type: cell-based
T3 construct: plasmids (pcDNA3.1 constructs) coding for full length hTLR2, hTLR7, hTLR8 and hTLR9; expressed in transfected cells; host or cells: 293T cells carrying an NF-kappa B-luciferase reporter
Procedure: as §1, §4, §5, §2, §3, §6

T3 sequence (O60603 21-784): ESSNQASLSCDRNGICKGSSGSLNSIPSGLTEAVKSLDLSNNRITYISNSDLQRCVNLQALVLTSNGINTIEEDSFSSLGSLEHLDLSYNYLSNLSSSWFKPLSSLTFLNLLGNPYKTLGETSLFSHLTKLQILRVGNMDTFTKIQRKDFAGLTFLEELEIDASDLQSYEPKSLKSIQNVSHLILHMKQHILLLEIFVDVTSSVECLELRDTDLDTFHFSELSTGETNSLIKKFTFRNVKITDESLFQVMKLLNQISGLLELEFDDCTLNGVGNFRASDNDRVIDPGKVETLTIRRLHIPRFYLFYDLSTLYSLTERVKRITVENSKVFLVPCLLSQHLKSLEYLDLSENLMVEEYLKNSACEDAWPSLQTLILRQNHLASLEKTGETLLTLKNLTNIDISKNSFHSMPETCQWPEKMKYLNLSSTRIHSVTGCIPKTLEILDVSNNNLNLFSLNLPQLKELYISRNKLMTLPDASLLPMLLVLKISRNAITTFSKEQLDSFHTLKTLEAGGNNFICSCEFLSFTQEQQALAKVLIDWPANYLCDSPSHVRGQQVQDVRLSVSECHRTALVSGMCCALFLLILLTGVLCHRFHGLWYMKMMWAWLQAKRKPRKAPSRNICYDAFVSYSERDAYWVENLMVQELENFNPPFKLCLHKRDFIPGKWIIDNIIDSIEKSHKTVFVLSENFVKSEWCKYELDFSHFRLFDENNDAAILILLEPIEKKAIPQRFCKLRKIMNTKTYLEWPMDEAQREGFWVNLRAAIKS

Row | Substance | NF-kappa B activation through hTLR8 (in words) (hTLR8 [2]) | NF-kappa B activation through hTLR7 (in words) (hTLR7 [3]) | activation monitored by IL-8 production (hTLR8 [6]) | activation monitored by IL-8 production (hTLR7 [7]) | further results
1 | IL-1: cytokine used as positive control for NF-kappa B activation |  |  |  |  | activation of NF-kappa B luciferase reporter gene (in words) [1]: activated the NF-kappa B luciferase reporter gene in a TLR-independent manner
2 | CpG ODN 8954: CpG ODN 5′ GGGGACGACGTCGTGGGGGGG 3′, SEQ ID NO:4 (listed as DNA, chemistry not fully specified) | Neither LPS nor the CpG ODN 8954 appeared to activate | Neither LPS nor the CpG ODN 8954 appeared to activate |  |  | 
3 | ODN 5177: negative control ODN 5′ TCCGCCTGTGACATGCATT 3′; SEQ ID NO:5 (listed as DNA, chemistry not fully specified) |  |  |  |  | IFN-gamma induction (human PBMC [4]): The same result was obtained; IP-10 induction (human PBMC [5]): but not the negative control ODN 5177 induced similar amounts of IP-10
4 | lipopolysaccharide [LPS] | Neither LPS nor the CpG ODN 8954 appeared to activate | Neither LPS nor the CpG ODN 8954 appeared to activate | None of the stimuli used activated | None of the stimuli used activated | NF-kappa B activation through hTLR2 (in words) (hTLR2): activated by LPS
5 | 1668: CpG-ODN TCCATGACGTTCCTGATGCT, SEQ ID NO:12 (listed as DNA, chemistry not fully specified) [compound 1668] |  |  | None of the stimuli used activated | None of the stimuli used activated | 
